Data on 35 compounds can be found in publication PMC9968098, “Towards Arginase Inhibition: Hybrid SAR Protocol for Property Mapping of Chlorinated N-arylcinnamamides” (International Journal of Molecular Sciences, 2023).

The term IC50 denotes the concentration needed to halve the response being measured.

Like-named read-outs stand apart in the source and are kept apart here. Bounds are passed on as bounds.

Series [1] deals with P. falciparum 3D7/MRA-102. Kind of series: In vitro antiplasmodial activity (parasite growth, 48 h). As to conditions: Plasmodium falciparum, read-out: Pf IC50 ± SD. It counts as cell-based. As for the experimental part: The following reagent was obtained through BEI Resources, NIAID, NIH: Plasmodium falciparum, strain 3D7, MRA-102, contributed by Daniel J. Carucci. Based on a modified procedure by Trager and Jensen, asexual erythrocytic stages of Pf were continuously maintained through in vitro culture. The chloroquine-sensitive strain is cultured thanks to human red blood cells (A+) and a culture medium mainly composed of RPMI 1640 (Gibco, Fisher Scientific, Loughborough, UK) containing NaHCO3 (32 mM), HEPES (25 mM), and L-glutamine. The medium was supplemented with 1.76 g/L of glucose (Sigma-Aldrich, […], Belgium), […] of hypoxanthine (Sigma-Aldrich), 100 mg/L of gentamycin (Gibco, Fisher Scientific) and 10% human pooled serum (A+), as previously described. Solutions of pure products were prepared in DMSO at 10 mg/mL. As DMSO is recognized as toxic for parasites, the highest concentration of solvent to which they were exposed was 1%. Thus, primary solutions were diluted in a culture medium to reach 100 μg/mL in the first row of a 96-well plate. Therefore, each test sample was applied in a series of eight 2-fold dilutions and tested in triplicate. The assay was performed with 2% parasitaemia and 1% haematocrit. After 48 h of incubation, plates were frozen at -20 °C for 12 h and parasite growth was quantified according to the methods described by Makler et al.. Chloroquine (Sigma-Aldrich) was used as positive standards in all experiments, with initial concentrations at 100 ng/mL. Infected and uninfected red blood cells (RBC) were used as positive (100% growth) and negative controls (0% growth). Consequently, comparison between infected erythrocytes and samples allowed us to estimate the growth inhibition. IC50 values were calculated from linear regression.

Details of series [2]: method as in PMID 35328580. Particulars: experimentally determined lipophilicity, RP-HPLC; cited from earlier work.
The test system of series [3] is human monocytic leukemia cell line THP-1. Also noted: method as in PMID 35328580. As to conditions: cell viability, THP-1 cells, n = 3; cited from earlier work.
Where [4] appears, read: chloroquine-sensitive strain 3D7/MRA-102, 48 h incubation, n = 3.

As for `O=C(/C=C/c1ccc(Cl)cc1)Nc1ccc(OC(F)(F)F)cc1Br` [1q], the results for the IC50 in series [1] (setting [4]) and in series [3] were 24.8 ± 2.5 µM and over 10 µM, respectively. Besides, the logk in series [2] was 1.0278.

On to `O=C(/C=C/c1ccc(Cl)c(Cl)c1)Nc1ccccc1F` [2b], for which the IC50 in series [1] (setting [4]) was over 30 µM; in series [3] it was over 10 µM. Moreover, in series [2], the logk is given as 0.7764.

Regarding `O=C(/C=C/c1ccc(Cl)cc1)Nc1ccccc1C(F)(F)F` [1h], the 50% inhibitory concentration (IC50) in series [1] (setting [4]) was over 30 µM; in series [3] it was over 10 µM. Moreover, in series [2], the logk is recorded as 0.5506.

For `O=C(/C=C/c1ccc(Cl)c(Cl)c1)Nc1cc(Cl)ccc1Cl` [2n], the IC50 in series [1] (setting [4]) was over 30 µM; in series [3] it was over 10 µM. Moreover, the logk in series [2] is recorded as 1.0840.

As to `O=C(/C=C/c1ccc(Cl)c(Cl)c1)Nc1cc(F)cc(F)c1` [2l, (2E)-3-(3,4-dichlorophenyl)-N-(3,5-difluoro-phenyl)prop-2-enamide], the IC50 was 1.8 ± 0.08 µM in series [1] (setting [4]) and over 10 µM in series [3]. Also, the logk in series [2] is given as 0.9298.

`O=C(/C=C/c1ccc(Cl)c(Cl)c1)Nc1ccc(F)cc1F` [2k, (2E)-3-(3,4-dichlorophenyl)-N-(2,4-difluoro-phenyl)prop-2-enamide]: the IC50 in series [1] (setting [4]) was 1.9 ± 0.06 µM; in series [3], over 10 µM. Besides, the logk in series [2] was 0.6989.

On to `O=C(/C=C/c1ccc(Cl)cc1)Nc1cccc(C(F)(F)F)c1` [1i], for which the IC50 was 14.8 ± 3.1 µM in series [1] (setting [4]) and over 10 µM in series [3]. Besides, the logk in series [2] is 0.8612.

Take `O=C(/C=C/c1ccc(Cl)c(Cl)c1)Nc1cc(Cl)cc(Cl)c1` [2o]: the IC50 in series [1] (setting [4]) was 3.8 ± 1.1 µM; in series [3], over 10 µM. Moreover, the logk in series [2] is given as 1.3043.

With `O=C(/C=C/c1ccc(Cl)cc1)Nc1ccc(Cl)cc1Cl` [1m], the IC50 in series [1] (setting [4]) is 4.6 ± 1.8 µM; in series [3], over 10 µM. Further, in series [2], the logk is recorded as 0.9665.

As for `O=C(/C=C/c1ccc(Cl)c(Cl)c1)Nc1cccc(F)c1` [2c], the IC50 in series [1] (setting [4]) was 3.4 ± 1 µM; in series [3], over 10 µM. Moreover, the logk in series [2] is 0.9071.

Take `O=C(/C=C/c1ccc(Cl)cc1)Nc1ccccc1Cl` [1e]: the IC50 in series [1] (setting [4]) is over 30 µM; in series [3] it was over 10 µM. Besides, the logk in series [2] was 0.5241.

In the case of `O=C(/C=C/c1ccc(Cl)c(Cl)c1)Nc1ccccc1` [2a], the IC50 is 21.4 ± 2.6 µM in series [1] (setting [4]) and over 10 µM in series [3]. In series [2], the logk is on record as 0.6199.

For the compound `O=C(/C=C/c1ccc(Cl)cc1)Nc1ccc(C(F)(F)F)cc1` [1j], the IC50 in series [1] (setting [4]) is over 30 µM; in series [3], over 10 µM. For the same compound, the logk in series [2] was 0.9078.

For the compound `O=C(/C=C/c1ccc(Cl)c(Cl)c1)Nc1ccc(F)cc1` [2d], the IC50 in series [1] (setting [4]) is 14.1 ± 3.1 µM; in series [3] it was over 10 µM. For the same compound, the logk in series [2] is 0.9009.

With `O=C(/C=C/c1ccc(Cl)cc1)Nc1cccc(F)c1` [1c], the IC50 is 6.9 ± 2.1 µM in series [1] (setting [4]) and over 10 µM in series [3]. In series [2], the logk is 0.7859.

Regarding `O=C(/C=C/c1ccc(Cl)cc1)Nc1ccc(F)cc1F` [1k], the IC50 in series [1] (setting [4]) is 11 ± 2.1 µM; in series [3], over 10 µM. The logk in series [2] is 0.5746.

Consider `O=C(/C=C/c1ccc(Cl)c(Cl)c1)Nc1cccc(Cl)c1` [2f], for which the IC50 is 10.5 ± 2 µM in series [1] (setting [4]) and over 10 µM in series [3]. Also, the logk in series [2] is given as 0.7404.

Turning to `O=C(/C=C/c1ccc(Cl)c(Cl)c1)Nc1ccccc1Cl` [2e], the IC50 in series [1] (setting [4]) is over 30 µM; in series [3], over 10 µM. In series [2], the logk is 0.6488.

As for `O=C(/C=C/c1ccc(Cl)c(Cl)c1)Nc1ccc(Cl)cc1Cl` [2m], the figures for the IC50 in series [1] (setting [4]) and in series [3] were 3.4 ± 0.9 µM and over 10 µM, respectively. Moreover, the logk in series [2] is reported as 1.0932.

Regarding `O=C(/C=C/c1ccc(Cl)cc1)Nc1cccc(Cl)c1` [1f], the figures for the IC50 in series [1] (setting [4]) and in series [3] were 12.7 ± 2.1 µM and over 10 µM, respectively. Besides, the logk in series [2] was 0.6192.

Take `O=C(/C=C/c1ccc(Cl)cc1)Nc1cc(Cl)cc(Cl)c1` [1o]: the IC50 was 4.4 ± 1.8 µM in series [1] (setting [4]) and over 10 µM in series [3]. Also, the logk in series [2] is reported as 1.1899.

Consider `O=C(/C=C/c1ccc(Cl)c(Cl)c1)Nc1ccccc1C(F)(F)F` [2h], for which the results for the IC50 in series [1] (setting [4]) and in series [3] were over 30 µM and over 10 µM, respectively. Moreover, the logk in series [2] is reported as 0.6836.

Take `O=C(/C=C/c1ccc(Cl)cc1)Nc1cc(F)cc(F)c1` [1l]: the IC50 was 5.2 ± 0.9 µM in series [1] (setting [4]) and over 10 µM in series [3]. In addition, the logk in series [2] was 0.8054.

Consider `O=C(/C=C/c1ccc(Cl)cc1)Nc1ccccc1F` [1b], for which the IC50 in series [1] (setting [4]) was over 30 µM; in series [3] it was over 10 µM. For the same compound, the logk in series [2] was 0.6459.

As for `O=C(/C=C/c1ccc(Cl)c(Cl)c1)Nc1ccc(OC(F)(F)F)cc1Br` [2q], the IC50 is 23 ± 2.7 µM in series [1] (setting [4]) and over 10 µM in series [3]. Also, in series [2], the logk is reported as 1.2065.

As for `O=C(/C=C/c1ccc(Cl)c(Cl)c1)Nc1ccc(C(F)(F)F)cc1` [2j], the IC50 in series [1] (setting [4]) was 16 ± 2.5 µM; in series [3] it was over 10 µM. The logk in series [2] was 1.0364.

In the case of `O=C(/C=C/c1ccc(Cl)c(Cl)c1)Nc1cccc(C(F)(F)F)c1` [2i], the results for the IC50 in series [1] (setting [4]) and in series [3] were 14.2 ± 2.3 µM and over 10 µM, respectively. For the same compound, the logk in series [2] is given as 0.9873.

Turning to `O=C(/C=C/c1ccc(Cl)cc1)Nc1ccc(Cl)cc1` [1g], the IC50 in series [1] (setting [4]) is 29.2 ± 2.4 µM; in series [3] it was over 10 µM. Moreover, the logk in series [2] is reported as 0.5598.

With `O=C(/C=C/c1ccc(Cl)c(Cl)c1)Nc1cc(C(F)(F)F)cc(C(F)(F)F)c1` [2p, (2E)-N-[3,5-bis(trifluoromethyl)phenyl]-3-(3,4-dichloro-phenyl)prop-2-enamide], the IC50 is 1.6 ± 0.07 µM in series [1] (setting [4]) and over 10 µM in series [3]. Besides, the logk in series [2] is reported as 1.4731.

Consider `O=C(/C=C/c1ccc(Cl)c(Cl)c1)Nc1ccc(Cl)cc1` [2g], for which the IC50 is 7.9 ± 1.7 µM in series [1] (setting [4]) and over 10 µM in series [3]. Further, the logk in series [2] is 0.6786.

As to `O=C(/C=C/c1ccc(Cl)cc1)Nc1cc(C(F)(F)F)cc(C(F)(F)F)c1` [1p, (2E)-N-[3,5-bis(trifluoromethyl)phenyl]-3-(4-chlorophenyl)prop-2-enamide], the IC50 was 2.5 ± 0.9 µM in series [1] (setting [4]) and over 10 µM in series [3]. The logk in series [2] was 1.3064.

For `O=C(/C=C/c1ccc(Cl)cc1)Nc1ccccc1` [1a], the IC50 is over 30 µM in series [1] (setting [4]) and over 10 µM in series [3]. Moreover, the logk in series [2] is listed as 0.4490.

Regarding `O=C(/C=C/c1ccc(Cl)cc1)Nc1ccc(F)cc1` [1d], the IC50 in series [1] (setting [4]) is over 30 µM; in series [3], over 10 µM. In addition, the logk in series [2] is 0.7808.

For the compound `O=C(/C=C/c1ccc(Cl)cc1)Nc1cc(Cl)ccc1Cl` [1n], the values for the IC50 in series [1] (setting [4]) and in series [3] were over 30 µM and over 10 µM, respectively. Also, in series [2], the logk was 0.9507.

Regarding `CCN(CC)CCCC(C)Nc1ccnc2cc(Cl)ccc12` (stereo not shown) [CQ, chloroquine, reference compound], in series [1] (3D7, 48 h), the IC50 was 0.5 ± 0.2 µM.
